{"source": "patent US20140031787A1", "about": "“FEEDBACK-BASED DIURETIC OR NATRIURETIC MOLECULE ADMINISTRATION” (Medtronic, Inc., priority 2012, published 2014)", "key": {"male dog": {"tested_on": "male dog", "assay": "NICOM study: cardiac data in anesthetized, mechanically ventilated dog", "type": "in vivo", "conditions": "phenylephrine followed by SNP; for cardiac output (CO): dobutamine incremental infusion doses, esmolol after dobutamine", "method": "In one embodiment, the monitor comprises two electrodes (2601, 2602) which carry out two roles simultaneously. The first role is to deliver a continuous low-voltage alternating electrical current. The second role is to sample at a very fast rate the signal emanating from a patient. The signals are then analyzed to determine stroke volume (SV), heart rate (HR), cardiac output (CO), stroke volume variation (SVV) and other hemodynamic information. In one embodiment, the two electrodes 2601 and 2602 are placed on the surface of the chest of a human being 2604 to collect cardiac data. Although a human being 2604 is depicted, one of ordinary skill will understand that any mammal can be the subject. Further, one of ordinary skill in the art will appreciate that the two electrodes 2601 and 2602 may be placed on different locations of the body of the subject to obtain data.\nA noninvasive cardiac output monitoring (NICOM) monitor was utilized to measure cardiac data from an anesthetized, mechanically ventilated, 54 lb, 42 inch (nose to base of tail) male dog. FIGS. 23-27 depict the cardiac data measured by the NICOM monitor.\nThe gap in data at 11:20 indicates electrocautery interference when the chest of the dog was opened. FIG. 24 depicts the data in response to sequential fluid boluses. An approximate 20% increase in CO was detected reflecting changes in both SV and HR. […] FIG. 26 depicts the cardiodepressant effect of the ultra-short beta-blocker esmolol given after dobutamine and recalibration. […] FIG. 27 depicts the response to increasing blood pressure with phenylephrine followed by decreasing blood pressure with sodium nitroprusside (SNP). Prior to this intervention, the dog chest had been opened and commercially available flow monitors had been implanted on the pulmonary artery (PA). Baseline PA flow data, which was measured by the implantable monitors, was 2.7 L/min. The PA flow data measured by the NICOM monitor was 2.812 L/min."}, "[1]": {"tested_on": "canine model high-rate paced (HRP)", "assay": "Pharmacodynamic study of VD by subcutaneous infusion in high-rate paced canine heart failure model", "from_the_text": "The pharmacodynamic effects of VD delivered by subcutaneous infusion were investigated in a canine model high-rate paced (HRP) to a heart rate of 240 bpm (ventricular pacing) over a period of 10 days to simulate HF. The canines were divided into a control group and an experimental group. The control group received a continuous subcutaneous infusion of the Tris buffer without VD over the course of the 10 day period. The experimental group received continuous subcutaneous infusion of VD dissolved in Tris buffer at a dosing rate of 100 ng/kg·min based upon the body weight of individual canines.\nSeven days prior to the beginning of HRP (Day −7), all dogs were instrumented for ventricular pacing with an IPG (implantable pulse generator) including an RA (right atrium) and RV (right ventricle) lead, and a DSI (Digital Sciences International) device in the femoral artery for arterial blood pressure monitoring. Glomerular filtration rate (GFR) was measured by iohexol clearance on the day before the beginning of HRP (Day −1). On Day 0, high-rate pacing was initiated at a rate of 240 BPM (beats per minute) and maintained continuously over the course of a 10 day period (Days 0-10). After HRP was started on Day 0, urine, blood, and hemodynamic data was collected from conscious animals to serve as a baseline.\nOn Days 0-10, in combination with pacing, each animal received continuous subcutaneous (SQ) infusion of an agent (Tris buffer solution for control animals and vessel dilator in Tris buffer for experimental animals) delivered via external catheter and pump. SQ infusion was performed using Medtronic MiniMed® 407C pumps equipped with 3.0 mL reservoirs (#MMT-103A) and Medtronic Silhouette® combo infusion sets (#MMT373). GFR measurements were repeated on Day 9. On Day 10 (with HRP On), a pre-term monitor was performed for urine and hemodynamic data collection on conscious animals. Once the data was collected, HRP was turned off and the animals were euthanized."}, "Dahl/SS rats": {"tested_on": "Dahl/SS rats", "assay": "Pharmacodynamic study of VD by SQ infusion in Dahl/SS rats on 4% salt diet", "conditions": "for blood pressure compared with 4% vehicle control group at week 3: week 3, p-value<0.05", "quoted_text": "The pharmacodynamic effects of VD were investigated in a rat model. Forty male Dahl/SS rats were shipped to the animal facilities at PhysioGenix, Inc. (Milwaukee, Wis.). The rats were maintained on a low-salt diet and allowed to acclimate. After acclimation, animals had baseline parameters collected while on the low-salt diet. Baseline tail-cuff blood pressures and echocardiograms were measured. Baseline urine was collected for analysis of protein and albumin. Animals were then randomly assigned to one of 4 groups (10 animals per group):\n1. Vehicle Control; low-salt diet, n=10 2. Vehicle Control; 4% salt diet, n=10 3. Vessel dilator, 100 ng/kg/min, 4% salt diet, n=10 4. Vessel dilator, 300 ng/kg/min, 4% salt diet, n=10\nThe vehicle control groups were infused with a citrate-mannitol-saline buffer (0.66 mg/mL citric acid, 6.43 mg/mL sodium citrate, 40 mg/mL mannitol, 9 mg/mL NaCl). The animals were on a Teklad 7034 (low-salt) diet or Dyets AIN-76A 4% salt diet, as indicated, throughout a 6 week course of the study and had free access to water.\nAlzet® minipumps (Durect, Corp.) were surgically implanted on Days 1, 15, and 29 of the study to maintain continuous vehicle or drug dispensing at the desired dose for a total period of 6 weeks. Urine was collected at baseline, 2, 4 and 6 weeks after the initiation of the treatment to assess proteinuria and albuminuria. After six weeks of treatment, the animals were then euthanized."}}}
{"molecule": "CC(CCc1ccc(O)cc1)NCCc1ccc(O)c(O)c1", "note": "(stereo not drawn) [dobutamine]", "values": [{"measurement": "cardiac output (CO)", "setting": "male dog; NICOM monitor", "value": "marked increase"}]}
{"molecule": "COC(=O)CCc1ccc(OCC(O)CNC(C)C)cc1", "note": "(stereo not drawn) [esmolol]", "values": [{"measurement": "cardiac output (CO)", "setting": "male dog; NICOM monitor", "value": "marked decline"}]}
{"molecule": "CNC[C@H](O)c1cccc(O)c1", "note": "[phenylephrine]", "values": [{"measurement": "cardiac output (CO)", "setting": "male dog; NICOM monitor", "value": "reduced"}, {"measurement": "heart rate (HR)", "setting": "male dog; NICOM monitor", "value": "reflex slowing"}, {"measurement": "blood pressure", "setting": "male dog", "value": "elevated"}]}
{"molecule": "vessel dilator (EVVPPQVLSEPNEEAGAALSPLPEVPPWTGEVSPAQR; Vessel dilator; UniProt P01160 56-92, looked up) [VD]", "values": [{"measurement": "difference in pulmonary capillary wedge pressure between control and experimental group on Day 10", "setting": "[1]; VD 100 ng/kg·min SQ infusion, two-way repeated measures ANOVA", "value": "does not appear to be statistically significant"}, {"measurement": "extent of increase in pulmonary capillary wedge pressure Day 0 to Day 10 compared with control group", "setting": "[1]; VD 100 ng/kg·min continuous SQ infusion", "value": "smaller than that observed in the control group"}, {"measurement": "increase in right atrial pressure compared with control group", "setting": "[1]; VD 100 ng/kg·min continuous SQ infusion, Day 10, p-value<0.05", "value": "significantly less than for the control group"}, {"measurement": "mean right atrial pressure, change from Day 0 to Day 10", "setting": "[1]; VD 100 ng/kg·min continuous SQ infusion, HRP 240 bpm for 10 days", "value": "increased slightly"}, {"measurement": "average blood pressure compared with vehicle control group on 4% salt diet", "setting": "Dahl/SS rats; high-dose VD 300 ng/kg/min SQ infusion", "value": "attenuated blood pressure"}, {"measurement": "blood pressure compared with 4% vehicle control group at week 3", "setting": "Dahl/SS rats; high-dose VD 300 ng/kg/min", "value": "statistically significant decrease"}, {"measurement": "decrease in blood pressure compared with 4% vehicle control group at week 5", "setting": "Dahl/SS rats; high-dose VD 300 ng/kg/min", "value": "not as statistically significant"}, {"measurement": "average blood pressure compared with vehicle control group on 4% salt diet", "setting": "Dahl/SS rats; low-dose VD 100 ng/kg/min SQ infusion", "value": "attenuated blood pressure"}, {"measurement": "blood pressure compared with 4% vehicle control group at week 3", "setting": "Dahl/SS rats; low-dose VD 100 ng/kg/min", "value": "statistically significant decrease"}, {"measurement": "decrease in blood pressure compared with 4% vehicle control group at week 5", "setting": "Dahl/SS rats; low-dose VD 100 ng/kg/min", "value": "not as statistically significant"}]}
